Data as given in PMC8279416, “Structural Fine-Tuning of Desmuramylpeptide NOD2 Agonists Defines Their In Vivo Adjuvant Activity” (Journal of Medicinal Chemistry, 2021).

How the values were obtained:
NIH/OlaHsd mice = experiment: In vivo ovalbumin-specific antibody response, first experiment (neutral liposomes); set-up: species or system mouse; details: for Log10 (anti-OVA IgG1/anti-OVA IgG2a): first in vivo experiment, one week after the booster dose, mean ± SEM of 5 mice; for Boost in the elicited ovalbumin-specific IgG response: vs liposomes without adjuvant
Experimental: To determine whether enhanced antigen presentation in vitro is correlated to in vivo adjuvant activities, an immunization study was performed in a murine model of adjuvanticity. Specifically, the selected desmuramylpeptides were investigated for induction of systemic immune responses against the model antigen ovalbumin. Seven groups of NIH/OlaHsd mice were immunized with ovalbumin-containing neutral liposomes, either alone or with additional adjuvants of MDP or the desmuramylpeptides 1, 68, 74, 75, or 81. After immunization and one booster dose, the mice sera were collected and assayed for ovalbumin-specific IgG antibodies (Figure 10).
Multilamellar liposomes were prepared by the modified thin lipid film method as described previously.[130],[131] For the preparation of neutral liposomes, a 7:5 molar ratio of egg-phosphatidylcholine and cholesterol was used. For the preparation of negatively charged liposomes, a 7:5:1 molar ratio of egg-phosphatidylcholine, cholesterol, and dicetylphosphate was used, while a 7:5:0.5 molar ratio of egg-phosphatidylcholine, cholesterol, and Man-PEG-Pam was used in the preparation of mannosylated liposomes. Lipids (total lipid concentration, 4 mg/mL) were dissolved in chloroform/methanol (2:1). A methanol or chloroform/methanol solution of MDP or the desmuramylpeptides was added to the lipid solution for a final concentration of 2 mM and 1.5 mM for the first (Figure 10) and second (Figure 11) experiments, respectively. After rotary evaporation of the solvent, the remaining lipid film was dried in vacuum for 1 h and then dispersed by gentle handshaking in an ovalbumin solution in saline (0.0667 and 0.1 mg/mL for the first and second experiments, respectively). This was then left overnight at 4 °C to swell and stabilize. Liposome size was reduced by sonification. Nonentrapped material was not separated from liposomes, and the complete liposome suspension was used for immunizations.
For the first experiment (Figure 10), sex-matched NIH/OlaHsd mice (five per group) were immunized subcutaneously in the tail base and boosted one time after 21 days. The injection volume in all experimental groups was 0.15 mL per mouse, which corresponds to 10 μg of OVA, […], and 0.30 μmol of MDP and desmuramylpeptides. For the second experiment (Figure 11), sex-matched NIH/OlaHsd mice (five per group) were immunized and boosted two times subcutaneously into the tail base at 21-day intervals. The injection volume in all experimental groups was 0.1 mL per mouse, which corresponds to 10 μg of OVA, 400 μg of lipids, and 0.15 μmol of MDP and 75. The mice were anesthetized with ip application of ketamine/xylazine (25 mg/kg each) prior to blood collection from the axillary plexus on the seventh day after the last booster dose. Individual serum from each animal was decomplemented at 56 °C for 30 min and then stored at −20 °C until tested.
ELISA assays were performed as detailed previously.[46] Briefly, high-binding ELISA plates (Costar, U.S.A.) were coated with a 15 μg/mL solution of ovalbumin in carbonate buffer, pH 9.6, and incubated overnight at room temperature. Nonspecific antibody binding was blocked with 0.5% w/v bovine serum albumin in PBS-T (0.05% (v/v) Tween 20 in phosphate-buffered saline) for 2 h at 37 °C. After washing, five serial dilutions of mice sera and standard preparations were added in duplicate. Plates were incubated overnight at room temperature, washed, and analyzed for ovalbumin-specific IgG levels by incubation with HRP-conjugated goat anti-mouse IgG (2 h at 37 °C) and then, after washing, with 0.6 mg/mL o-phenylenediaminedihydrochloride solution in citrate-phosphate buffer, pH 5.0, with 0.5 μL of 30% H2O2 per milliliter for 30 min at room temperature in the dark. The enzymatic reaction was stopped with 12.5% H2SO4, and absorbance at 492 nm was measured using a microplate reader (Thermo Fisher Scientific, Waltham, MA, U.S.A.). […]

human PBMCs = experiment: Cytokine release from peripheral blood mononuclear cells (cytometric bead array); format: cell-based; details: 2 μM, 18 h, without LPS
Experimental: The immunostimulatory effects of the selected desmuramylpeptides were evaluated using human primary peripheral blood mononuclear cells (PBMCs). This heterogeneous mixture of immune cells allowed the study of the effects of these NOD2 agonists in a physiologically relevant system, where other NOD2-interacting and downstream signaling proteins were present. The effects of desmuramylpeptides were first determined for the secreted cytokine profile using a cytometric bead array cytokine kit. Moreover, considering that activation of NOD2 is also an important amplification signal for Toll-like receptor (TLR)-induced inflammatory responses,[79]−[81] we also examined the effects on cytokine secretion of the combination of desmuramylpeptides with LPS, a well-known TLR4 agonist.
In line with previous studies, the effects of MDP and the desmuramylpeptides were most pronounced for the induction of the chemokine IL-8.[82]
Peripheral blood mononuclear cells were seeded (1 × 10^6 cells/mL) in 48-well plates in 500 μL of growth medium and treated with the compounds (2 μM) or with the corresponding vehicle (0.1% DMSO) in the absence and presence of LPS (10 ng/mL). Cell-free supernatants were collected after 18 h of incubation (37 °C, 5% CO2) and stored at −80 °C until tested. Cytokine production was determined with the BD Cytometric Bead Array Human Inflammatory Cytokines Kit (contents: IL-8, IL-1β, IL-6, IL-10, TNF, IL-12p70; BD Bioscience) on an Attune NxT flow cytometer (Thermo Fisher Scientific, Waltham, MA, U.S.A.). Standard curves were generated using recombinant cytokines contained in the kit. The data were analyzed using the FlowJo (Tree Star, Inc., Ashland, OR, U.S.A.) and Prism (GraphPad, San Diego, CA, U.S.A.) software. The experiments were repeated as four independent biological replicates. Statistical significance was determined by repeated measures one-way ANOVA followed with Dunnett’s multiple comparisons test.

[1] = neutral liposomes, 0.30 μmol adjuvant per dose, 1 week after booster
[2] = neutral liposomes, 0.30 μmol adjuvant per dose, s.c., 1 week after booster

Row | SMILES | Log10 (anti-OVA IgG1/anti-OVA IgG2a) (NIH/OlaHsd mice) | Ovalbumin-specific IgG2a response (in words) (NIH/OlaHsd mice; [1]) | Adjuvant activity: ovalbumin-specific IgG (in words) (NIH/OlaHsd mice; [2]) | Induction of cytokines IL-1β, IL-6, IL-8 and TNF-α, compound alone (human PBMCs) | Ovalbumin-specific IgG1 response (in words) (NIH/OlaHsd mice; [1]) | Boost in the elicited ovalbumin-specific IgG response (NIH/OlaHsd mice; [2]) [fold]
1 | COc1cc(/C=C/C(=O)NCC(=O)N[C@H](C(=O)N[C@H](CCC(=O)OC2CCCC2)C(=O)OC2CCCC2)C(C)C)ccc1O [Compound 68, Dicyclopentyl ((E)-3-(4-Hydroxy-3-methoxyphenyl)acryloyl)glycyl-L-valyl-D-glutamate] | 2.28 ± 0.13 | slight suppression of the IgG2a response | devoid of adjuvant activity | induced small increases in the levels of all four of these cytokines |  | 
2 | CCCCCCCCCCCCCCCCCC(=O)Oc1ccc(/C=C/C(=O)NCC(=O)N[C@H](C(=O)N[C@H](CCC(=O)OCC)C(=O)OCC)C(C)C)cc1OC [Compound 75, Diethyl ((E)-3-(3-Methoxy-4-(stearoyloxy)phenyl)acryloyl)glycyl-L-valyl-D-glutamate] | 2.07 ± 0.17 | highest levels of IgG2a antibodies |  | induced lower responses | significantly enhanced | 5
3 | CCCCCCCCCCCCCCCCCC(=O)Oc1ccc(/C=C/C(=O)NCC(=O)N[C@H](C(=O)N[C@H](CCC(=O)OCC)C(=O)OCC)[C@@H](C)O)cc1OC [Compound 81, Diethyl ((E)-3-(3-Methoxy-4-(stearoyloxy)phenyl)acryloyl)glycyl-L-threonyl-D-glutamate] | 2.18 ± 0.24 |  |  | induced lower responses | largely IgG1-based response | 3
